Key:
Type in all cases: cell-based
[1] = system: CCRF-CEM; assay: NCI screen, growth of human tumor cells: Leukemia CCRF-CEM; settings: CCRF-CEM (Leukemia), 10^−4 molar
How it was run: (§1)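 Percent-growth read-out from the NCI cancer cell screen; data annotated by cancer type and molar concentration, ≥60 points per compound.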

[2] = system: HL-60 (TB); assay: NCI screen, growth of human tumor cells: Leukemia HL-60 (TB); settings: HL-60 (TB) (Leukemia), 10^−4 molar
Description: (§2) In the NCI screening process, each compound was tested and described by a minimum of 60 data points. The test data include, but are not limited to the type of cancer, the molar concentration used in the screen, and the percent growth of the cancer. In some cases, NMR and elemental analysis were used for structural assignment.

[3] = system: K562; assay: NCI screen, growth of human tumor cells: Leukemia K562; settings: K562 (Leukemia), 10^−4 molar
How it was run: as §1

[4] = system: MOLT-4; assay: NCI screen, growth of human tumor cells: Leukemia MOLT-4; settings: MOLT-4 (Leukemia), 10^−4 molar
Description: as §2

[5] = system: RPMI-8226; assay: NCI screen, growth of human tumor cells: Leukemia RPMI-8226; settings: RPMI-8226 (Leukemia), 10^−4 molar
How it was run: as §1

[6] = system: SR; assay: NCI screen, growth of human tumor cells: Leukemia SR; settings: SR
How it was run: as §1

[7] = system: AS49/ATCC; assay: NCI screen, growth of human tumor cells: Non-Small Cell Lung AS49/ATCC; settings: AS49/ATCC (Non-Small Cell Lung), 10^−4 molar
Description: as §2

[8] = system: EKVX; assay: NCI screen, growth of human tumor cells: Non-Small Cell Lung EKVX; settings: EKVX (Non-Small Cell Lung), 10^−4 molar
How it was run: as §1

[9] = system: HOP-62; assay: NCI screen, growth of human tumor cells: Non-Small Cell Lung HOP-62; settings: HOP-62, 10^−4 molar
How it was run: as §1

[10] = system: NCI-H226; assay: NCI screen, growth of human tumor cells: Non-Small Cell Lung NCI-H226; settings: NCI-H226 (Non-Small Cell Lung), 10^−4 molar
How it was run: as §1

[11] = system: NCI-H522; assay: NCI screen, growth of human tumor cells: Non-Small Cell Lung NCI-H522; settings: NCI-H522, 10^−4 molar
Description: as §2

[12] = system: NCI-H460; assay: NCI screen, growth of human tumor cells: Non-Small Cell Lung NCI-H460; settings: NCI-H460 (Non-Small Cell Lung), 10^−4 molar
How it was run: as §1

[13] = system: NCI-H322M; assay: NCI screen, growth of human tumor cells: Non-Small Cell Lung NCI-H322M; settings: NCI-H322M, 10^−4 molar
Description: as §2

[14] = system: NCI-H23; assay: NCI screen, growth of human tumor cells: Non-Small Cell Lung NCI-H23; settings: NCI-H23, 10^−4 molar
How it was run: as §1

[15] = system: HCC-2998; assay: NCI screen, growth of human tumor cells: HCC-2998 (listed under Non-Small Cell Lung); settings: HCC-2998, 10^−4 molar
Description: as §2

[16] = system: COLO205; assay: NCI screen, growth of human tumor cells: Colon Cancer COLO205; settings: COLO205, 10^−4 molar
How it was run: as §1

[17] = system: HCT-116; assay: NCI screen, growth of human tumor cells: Colon Cancer HCT-116; settings: HCT-116 (Colon Cancer), 10^−4 molar
How it was run: as §1

[18] = system: HCT-15; assay: NCI screen, growth of human tumor cells: Colon Cancer HCT-15; settings: HCT-15, 10^−4 molar
How it was run: as §1

[19] = system: HT29; assay: NCI screen, growth of human tumor cells: Colon Cancer HT29; settings: HT29 (Colon Cancer), 10^−4 molar
Description: as §2

[20] = system: KM12; assay: NCI screen, growth of human tumor cells: Colon Cancer KM12; settings: KM12 (Colon Cancer), 10^−4 molar
How it was run: as §1

[21] = system: SF-268; assay: NCI screen, growth of human tumor cells: CNS Cancer SF-268; settings: SF-268 (CNS Cancer), 10^−4 molar
How it was run: as §1

[22] = system: SF-295; assay: NCI screen, growth of human tumor cells: CNS Cancer SF-295
How it was run: as §1

[23] = system: SF-539; assay: NCI screen, growth of human tumor cells: CNS Cancer SF-539
How it was run: as §1

[24] = system: U-251; assay: NCI screen, growth of human tumor cells: CNS Cancer U-251; settings: U-251 (CNS Cancer), 10^−4 molar
How it was run: as §1

[25] = system: M14; assay: NCI screen, growth of human tumor cells: Melanoma M14; settings: M14, 10^−4 molar
How it was run: as §1

[26] = system: MALME-3M; assay: NCI screen, growth of human tumor cells: Melanoma MALME-3M; settings: MALME-3M, 10^−4 molar
Description: as §2

[27] = system: SK-MEL-2; assay: NCI screen, growth of human tumor cells: Melanoma SK-MEL-2; settings: SK-MEL-2 (Melanoma), 10^−4 molar
Description: as §2

[28] = system: SK-MEL-28; assay: NCI screen, growth of human tumor cells: Melanoma SK-MEL-28; settings: SK-MEL-28, 10^−4 molar
Description: as §2

[29] = system: SK-MEL-5; assay: NCI screen, growth of human tumor cells: Melanoma SK-MEL-5; settings: SK-MEL-5, 10^−4 molar
How it was run: as §1

[30] = system: UACC-257; assay: NCI screen, growth of human tumor cells: Melanoma UACC-257; settings: UACC-257, 10^−4 molar
Description: as §2

[31] = system: UACC-62; assay: NCI screen, growth of human tumor cells: Melanoma UACC-62
How it was run: as §1

[32] = system: IGROVI; assay: NCI screen, growth of human tumor cells: Ovarian Cancer IGROVI; settings: IGROVI (Ovarian Cancer), 10^−4 molar
Description: as §2

[33] = system: SK-OV-3; assay: NCI screen, growth of human tumor cells: Ovarian Cancer SK-OV-3; settings: SK-OV-3 (Ovarian Cancer), 10^−4 molar
Description: as §2

[34] = system: OVCAR-3; assay: NCI screen, growth of human tumor cells: Ovarian Cancer OVCAR-3; settings: OVCAR-3 (Ovarian Cancer), 10^−4 molar
How it was run: as §1

[35] = system: OVCAR-4; assay: NCI screen, growth of human tumor cells: Ovarian Cancer OVCAR-4; settings: OVCAR-4 (Ovarian Cancer), 10^−4 molar
How it was run: as §1

[36] = system: OVCAR-5; assay: NCI screen, growth of human tumor cells: Ovarian Cancer OVCAR-5; settings: OVCAR-5, 10^−4 molar
Description: as §2

[37] = system: 786-0; assay: NCI screen, growth of human tumor cells: Renal Cancer 786-0
Description: as §2

[38] = system: ACHN; assay: NCI screen, growth of human tumor cells: Renal Cancer ACHN; settings: ACHN
How it was run: as §1

[39] = system: RXF-393; assay: NCI screen, growth of human tumor cells: Renal Cancer RXF-393; settings: RXF-393 (Renal Cancer), 10^−4 molar
How it was run: as §1

[40] = system: SN12C; assay: NCI screen, growth of human tumor cells: Renal Cancer SN12C; settings: SN12C (Renal Cancer), 10^−4 molar
How it was run: as §1

[41] = system: CAKI-1; assay: NCI screen, growth of human tumor cells: Renal Cancer CAKI-1; settings: CAKI-1 (Renal Cancer), 10^−4 molar
How it was run: as §1

[42] = system: UO-31; assay: NCI screen, growth of human tumor cells: Renal Cancer UO-31; settings: UO-31 (Renal Cancer), 10^−4 molar
How it was run: as §1

[43] = system: DU-145; assay: NCI screen, growth of human tumor cells: Prostate Cancer DU-145; settings: DV-145, 10^−4 molar
How it was run: as §1

[44] = system: MCF 7; assay: NCI screen, growth of human tumor cells: Breast Cancer MCF 7; settings: MCF 7 (Breast Cancer), 10^−4 molar
Description: as §2

[45] = system: MCF7/ADR-RES; assay: NCI screen, growth of human tumor cells: Breast Cancer MCF7/ADR-RES; settings: MCF7/ADR-RES (Breast Cancer), 10^−4 molar
How it was run: as §1

[46] = system: BT-549; assay: NCI screen, growth of human tumor cells: Breast Cancer BT-549; settings: BT-549, 10^−4 molar
How it was run: as §1

[47] = system: MDA-MB-435; assay: NCI screen, growth of human tumor cells: Breast Cancer MDA-MB-435; settings: MDA-MB-435, 10^−4 molar
How it was run: as §1

[48] = system: human cancer cells; assay: NCI screen summary over the cancers tested (negative growth of human cancer cells); settings: cancers with negative growth / cancers tested
Description: as §2
The derivatives in the tables are grouped using the same category as in the tables 1-6.

CC1=C(CC2(S(=O)(=O)C(F)(F)F)S(=O)(=O)OCCOS2(=O)=O)C(=O)c2ccccc2C1=O [NSC 720682, ethylene trifluorosulfonyl-(3-methyl-1,4-naphtho-2-quinolyl)-1,1-ethanedisulfonate]
percent of growth of human tumor cells [1]: −5%
percent of growth of human tumor cells [2]: −22%
percent of growth of human tumor cells [3]: −11%
percent of growth of human tumor cells [4]: −11%
percent of growth of human tumor cells [5]: −4%
% Growth ([6]; 10^−4 molar): −14%
% Growth ([6]; 10^−5 molar): 30%
percent of growth of human tumor cells [7]: −37%
percent of growth of human tumor cells [8]: −36%
% Growth [9]: −96%
percent of growth of human tumor cells [10]: −45%
% Growth [11]: −72%
percent of growth of human tumor cells [12]: −59%
% Growth [13]: −97%
% Growth [14]: −68%
% Growth [15]: −88%
% Growth [16]: −88%
percent of growth of human tumor cells [17]: 19%
% Growth [18]: −72%
percent of growth of human tumor cells [19]: −43%
percent of growth of human tumor cells [20]: 20%
percent of growth of human tumor cells [21]: 1%
% Growth ([22]; SF-295, 10^−4 molar): −78%
% Growth ([22]; SF-295, 10^−5 molar): 53%
% Growth ([23]; SF-539, 10^−4 molar): −69%
% Growth ([23]; SF-539, 10^−5 molar): 57%
percent of growth of human tumor cells [24]: −36%
% Growth [25]: −90%
% Growth [26]: −89%
percent of growth of human tumor cells [27]: −58%
% Growth [28]: −85%
% Growth [29]: −91%
% Growth [30]: −64%
% Growth ([31]; UACC-62, 10^−4 molar): −73%
% Growth ([31]; UACC-62, 10^−5 molar): 55%
percent of growth of human tumor cells [32]: −18%
percent of growth of human tumor cells [33]: 20%
percent of growth of human tumor cells [34]: −42%
percent of growth of human tumor cells [35]: −23%
% Growth [36]: −87%
% Growth ([37]; 786-0, 10^−4 molar): −20%
% Growth ([37]; 786-0, 10^−5 molar): 49%
% Growth ([38]; 10^−4 molar): −21%
% Growth ([38]; 10^−5 molar): 55%
percent of growth of human tumor cells [39]: 24%
percent of growth of human tumor cells [40]: −70%
percent of growth of human tumor cells [41]: 16%
percent of growth of human tumor cells [42]: 29%
% Growth [43]: −99%
percent of growth of human tumor cells [44]: 1%
percent of growth of human tumor cells [45]: 1%
% Growth [46]: −78%
% Growth [47]: −86%
Percentage of cancers showing negative growth cancers tested ([48]; 10^−4 M conc.): 81%
Percentage of cancers showing negative growth cancers tested ([48]; 10^−5 M conc.): 17%

— patent publication US8124793B2, “Derivatives of ethylene methanedisulfonate as cancer chemotherapeutic agents” (priority 2007, dated 2012)
